{"source": "patent US20240228633A9", "about": "“METHODS OF TREATING CANCER WITH PDGFR ALPHA INHIBITORS” (Eli Lilly and Company, priority 2021, published 2024)", "key": {"[1]": {"tested_on": "LMS", "experiment": "Median overall survival in LMS patients by PDGFRβ tumor status", "type": "in vivo, human", "conditions": "for OS HR: LMS female patients; for Hazard Ratio, overall survival / Hazard Ratio (95% CI), overall survival: Olaratumab + Doxorubicin vs Placebo + Doxorubicin; for OS HR adjusted for ECOG PS: adjusting for ECOG PS"}, "[2]": {"tested_on": "advanced or metastatic soft tissue sarcoma", "conditions": "STS patients; for HR (95% CI), overall survival: Olaratumab + Doxorubicin vs Placebo + Doxorubicin", "protocol": "Study Design: Patients with advanced or metastatic soft tissue sarcoma are treated with olaratumab (20 mg/kg loading dose on Days 1 and 8 of a 21-day cycle in Cycle 1, followed by 15 mg/kg on Days 1 and 8 in subsequent 21-day cycle) in combination with doxorubicin (75 mg/m^2 on Day 1) (“investigational cohort”) and compared to patients treated with placebo (on Days 1 and 8) plus doxorubicin (75 mg/m^2 on Day 1) (“control cohort”). Patients are treated for 8 cycles, followed by olaratumab monotherapy or placebo until evidence of progressive disease, unacceptable toxicity or death. […] Patients are assessed for median overall survival (OS).\nImmunohistochemistry Assay to determine PDGFR/3 expression: For immunohistochemistry analysis, tumor tissue from patients is collected, formalin-fixed in 10% neutral buffered formalin, and paraffin-embedded (FFPE). PDGFRβ protein expression on tumor cells is assessed by immunohistochemistry. Briefly, from FFPE tissue blocks containing the patient tumor tissue, a 4-6 micrometer section is obtained and placed on a positively charged glass slide. Anti-PDGFRβ mouse monoclonal antibody 2B3 is used to detect expression of PDGFRβ (clone 2B3, Cell Signaling Technology® catalog number 3175S), diluted in Dako Primary Antibody Diluent with Background Reducing Components (Dako/Agilent catalog number S3022) at 0.25 μm/mL. Immunohistochemistry is performed on a Dako Autostainer Link 48/PT Link Incubator. Deparaffinization with the Link 48/PT Link Incubator is accomplished at 97° C. for 20 minutes. Target retrieval is next accomplished with immersion of the unstained slides into EnVision™ FLEX Target Retrieval Solution High pH (Dako) on the Dako Link48/PT Link Incubator. Following a rinse in RT EnVision™ FLEX Wash Buffer (1×), specific immunohistochemical staining with the 2B3 antibody is accomplished by FLEX Peroxidase Block for 5 minutes, application of the 0.25 ug/mL concentration of anti-human PDGFRβ antibody 2B3 with incubation for 60 minutes, followed by FLEX/HRP application and incubation for 20 minutes, then application of FLEX DAB+ Substrate Chromogen for 10 minutes, and finally FLEX hematoxylin for 5 minutes. Ready-to-use FLEX Mouse Negative Control (Dako/Agilent catalog number IR750) is performed alongside PDGFRβ staining and used as a quality control (negative control) for the assay. Stained slides are then evaluated by trained personnel using a brightfield microscope."}, "[3]": {"tested_on": "soft tissue sarcoma", "conditions": "clinical trials for treating soft tissue sarcoma; cited from earlier work"}, "[4]": {"conditions": "LMS patients excluding PDGFRβ positive females"}, "[5]": {"conditions": "LMS patients, PDGFRβ negative tumor status"}, "[6]": {"conditions": "LMS patients, PDGFRβ positive tumor status"}, "[7]": {"conditions": "PDGFRβ negative and PDGFRα positive tumor status"}}, "note": "Where two headings read alike, the source gives them in different places.", "data": [{"substance": "Olaratumab + Doxorubicin: olaratumab (antibody that binds human PDGFRα) in combination with doxorubicin, followed by olaratumab monotherapy", "values": [{"measurement": "OS HR", "setting": "[1]; PDGFRβ negative tumor status", "result": 0.55}, {"measurement": "OS HR", "setting": "[1]; PDGFRβ positive tumor status", "result": 1.34}, {"measurement": "Median OS months", "setting": "[1]; [4]", "result": 28.5, "unit": "months"}, {"measurement": "Hazard Ratio, overall survival", "setting": "[1]; [4]", "result": "0.60; p = 0.035"}, {"measurement": "Hazard Ratio, overall survival", "setting": "[1]; LMS patients excluding PDGFRβ positive females, listed as investigational cohort", "result": 0.60}, {"measurement": "Median OS months", "setting": "[1]; [5]", "result": 29.11, "unit": "months"}, {"measurement": "Hazard Ratio (95% CI), overall survival", "setting": "[1]; LMS patients, PDGFRβ negative", "result": "0.65 (0.33, 1.25)"}, {"measurement": "Hazard Ratio (95% CI), overall survival", "setting": "[1]; LMS patients, PDGFRβ negative, listed as investigational cohort", "result": 0.65}, {"measurement": "Median OS months", "setting": "[1]; [6]", "result": 20.14, "unit": "months"}, {"measurement": "Hazard Ratio (95% CI), overall survival", "setting": "[1]; LMS patients, PDGFRβ positive", "result": "1.05 ((0.71, 1.55)"}, {"measurement": "Hazard Ratio (95% CI), overall survival", "setting": "[1]; LMS patients, PDGFRβ positive, listed as investigational cohort", "result": 1.05}, {"measurement": "OS HR adjusted for ECOG PS", "setting": "[1]; PDGFRβ negative women with LMS", "result": 0.55}, {"measurement": "OS HR adjusted for ECOG PS", "setting": "[1]; PDGFRβ positive women with LMS", "result": 1.34}, {"measurement": "median OS", "setting": "[2]; PDGFRα negative tumor status", "result": 23.6, "unit": "months"}, {"measurement": "median OS", "setting": "[2]; PDGFRα positive tumor status", "result": 17.2, "unit": "months"}, {"measurement": "median OS", "setting": "[2]; [7]", "result": 28.5, "unit": "months"}, {"measurement": "Median OS months", "setting": "[2]; PDGFRβ negative tumor status", "result": 28.32, "unit": "months"}, {"measurement": "HR (95% CI), overall survival", "setting": "[2]; PDGFRβ negative", "result": "0.85 (0.54-1.33)"}, {"measurement": "HR (95% CI), overall survival", "setting": "[2]; PDGFRβ negative, listed as investigational cohort", "result": 0.85}, {"measurement": "Median OS months", "setting": "[2]; PDGFRβ positive tumor status", "result": 18.79, "unit": "months"}, {"measurement": "Median OS months", "setting": "[2]; PDGFRβ positive tumor status, listed as investigational cohort", "result": 18.8, "unit": "months"}, {"measurement": "HR (95% CI), overall survival", "setting": "[2]; PDGFRβ positive", "result": "1.10 (0.84-1.44)"}]}, {"substance": "LARTRUVO®: an antibody that specifically binds human PDGFRα", "values": [{"measurement": "therapeutic endpoints in clinical trials", "setting": "[3]", "result": "failed to meet certain therapeutic endpoints"}]}, {"substance": "doxorubicin [Placebo + Doxorubicin, reference compound]", "values": [{"measurement": "Median OS months", "setting": "[1]; [4]", "result": 20.9, "unit": "months"}, {"measurement": "Median OS months", "setting": "[1]; [5]", "result": "21.88 (16.72, 35.55) months"}, {"measurement": "Median OS months", "setting": "[1]; LMS patients, PDGFRβ negative tumor status, listed as control cohort", "result": 21.88, "unit": "months"}, {"measurement": "Median OS months", "setting": "[1]; [6]", "result": "21.39 (15.57, 24.57) months"}, {"measurement": "Median OS months", "setting": "[1]; LMS patients, PDGFRβ positive tumor status, listed as control cohort", "result": 21.39, "unit": "months"}, {"measurement": "median OS", "setting": "[2]; PDGFRα negative tumor status", "result": 21.9, "unit": "months"}, {"measurement": "median OS", "setting": "[2]; PDGFRα positive tumor status", "result": 19.1, "unit": "months"}, {"measurement": "median OS", "setting": "[2]; [7]", "result": 20.6, "unit": "months"}, {"measurement": "Median OS months", "setting": "[2]; PDGFRβ negative tumor status", "result": 20.57, "unit": "months"}, {"measurement": "Median OS months", "setting": "[2]; PDGFRβ positive tumor status", "result": 19.88, "unit": "months"}, {"measurement": "Median OS months", "setting": "[2]; PDGFRβ positive tumor status, listed as control cohort", "result": 19.9, "unit": "months"}]}]}
